This is an account of results in patent US9375005B2, “5-halogenopyrazole indanyl carboxamides” (BAYER CROPSCIENCE AG, priority 2012, dated 2016).

For one data set, the system named is Pyrenophora teres. Put plainly: In vivo preventive test on Pyrenophora teres (net blotch on barley). The settings on record: dose 500 ppm; barley plants sprayed 24 h before contamination; grading 14 days after contamination. A digest of the protocol:
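"Plaisant" barley grown at 22° C, sprayed with active ingredient at the 1-leaf stage, then inoculated 24 h later with 12 000 spores/ml of P. teres. Efficacy (%) graded 14 days post-contamination against solvent-only (acetone/tween/DMSO/water) controls.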

The test system of another data set is Botrytis cinerea. Nature of the data set: In vivo preventive test on Botrytis cinerea (grey mould). As to conditions: dose 500 ppm; gherkin plants sprayed 24 h before contamination; grading 4 to 5 days after contamination. The procedure: Gherkin plants (“Vert petit de Paris” variety), sown in starter cups on a 50/50 peat soil-pozzolana substrate and grown at 24° C., are treated at the Z11 cotyledon stage by spraying with the active ingredient prepared as described above. Plants, used as controls, are treated with the mixture of acetone/tween/DMSO/water not containing the active material. After 24 hours, the plants are contaminated by spraying the cotyledons with an aqueous suspension of cryopreserved Botrytis cinerea spores (50 000 spores per ml). The spores are suspended in a nutrient solution composed of 10 g/L of PDB, 50 g/L of D-Fructose, 2 g/L of NH4NO3 and 1 g/L of KH2PO4. […] Grading (% of efficacy) is carried out 4 to 5 days after the contamination, in comparison with the control plants.

For a further data set, the system named is Puccinia recondita. Nature of the data set: In vivo preventive test on Puccinia recondita (brown rust on wheat). As to conditions: dose 500 ppm; wheat plants sprayed 24 h before contamination; grading 12 days after contamination. The procedure:
Plants, used as controls, are treated with the mixture of acetone/tween/DMSO/water not containing the active material. After 24 hours, the plants are contaminated by spraying the leaves with an aqueous suspension of Puccinia recondita spores (100 000 spores per ml). […] Grading (% of efficacy) is carried out 12 days after the contamination, in comparison with the control plants.

Data set [1] can be described thus: Measurement of log P values by HPLC on reversed phase columns (EEC directive 79/831 Annex V.A8). Format: physicochemical.
The subject of the next data set is Alternaria brassicae. Nature of the data set: In vivo preventive test on Alternaria brassicae (leaf spot on radish). As to conditions: dose 500 ppm; radish plants sprayed 24 h before contamination; grading 6 days after contamination vs control plants. The procedure: Radish plants (“Pernod Clair” variety), sown in starter cups on a 50/50 peat soil-pozzolana substrate and grown at 17° C., are treated at the cotyledon stage by spraying with the active ingredient prepared as described above. Plants, used as controls, are treated with the mixture of acetone/tween/DMSO/water not containing the active material. After 24 hours, the plants are contaminated by spraying the cotyledons with an aqueous suspension of Alternaria brassicae spores (50 000 spores per ml). The spores are collected from a 15-day-old culture. […] Grading (% of efficacy) is carried out 6 days after the contamination, in comparison with the control plants.

A further data set concerns Uromyces appendiculatus. Nature of the data set: In vivo preventive test on Uromyces appendiculatus (bean rust). The settings on record: dose 500 ppm; bean plants sprayed 24 h before contamination; grading 11 days after contamination. A digest of the protocol:
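Saxa bean plants grown at 24° C were sprayed at the 2-leaf stage (9 cm) with compound in acetone/tween/DMSO/water; controls got solvent mix only. Leaves inoculated 24 h later with U. appendiculatus spores (150 000 spores/ml). Efficacy (%) graded 11 days post-inoculation versus controls.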

Another data set relates to Pyricularia oryzae. Format: in vivo. As to conditions: rice plants sprayed 24 h before contamination, grading 6 days after contamination.
A further data set relates to Phakopsora pachyrhizi. Nature of the data set: In vivo preventive Phakopsora test (soybeans). The settings on record: concentration 10 ppm of active ingredient; soybean plants; evaluated 7 days after inoculation.
In the next data set the test system is Sphaerotheca fuliginea. Nature of the data set: In vivo preventive test on Sphaerotheca fuliginea (powdery mildew on cucurbits). As to conditions: dose 500 ppm; gherkin plants sprayed 24 h before contamination; grading 12 days after contamination. A digest of the protocol:
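Gherkin plants sprayed with compound at the Z11 cotyledon stage, then inoculated 24 hours later with Sphaerotheca fuliginea spores (100 000 spores per ml). Kept at about 20 °C and 70-80% relative humidity; % efficacy versus solvent-treated controls graded 12 days after contamination.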

The next data set concerns Septoria tritici. Put plainly: In vivo preventive test on Septoria tritici (leaf spot on wheat). As to conditions: dose 500 ppm; wheat plants sprayed 24 h before contamination; grading 24 days after contamination. The procedure: Wheat plants (“Scipion” variety), sown in starter cups on a 50/50 peat soil-pozzolana substrate and grown at 22° C., are treated at the 1-leaf stage (10 cm height) by spraying with the active ingredient prepared as described above. Plants, used as controls, are treated with the mixture of acetone/tween/DMSO/water not containing the active material. After 24 hours, the plants are contaminated by spraying the leaves with an aqueous suspension of cryopreserved Septoria tritici spores (500 000 spores per ml). […] Grading (% of efficacy) is carried out 24 days after the contamination, in comparison with the control plants.

Where two headings read alike, the source gives them in different places.

For the compound `Cc1ccc(NC(=O)c2c(C(F)F)nn(C)c2F)c2c1C(C)(C)CC2C` (centres unmarked) [Example 19], the Eff. % with Pyrenophora teres is on record as 97%; in the data set on Botrytis cinerea, 98%; in the data set on Puccinia recondita it was 94%; in the data set with Alternaria brassicae, 75%; in the data set with Uromyces appendiculatus, 77%. The logP was 3.99[a]; in data set [1] (method marked [a]) and 3.92[b] in data set [1] (method marked [b]).
For the compound `Cn1nc(C(F)F)c(C(=O)Nc2cccc3c2CC(Cc2ccccc2)C3)c1Cl` (centres unmarked) [Example 39], the Eff. % in the data set with Pyricularia oryzae (dose 500 ppm) came out at 86%; in the data set on Alternaria brassicae, 79%; in the data set with Uromyces appendiculatus it was 100%. In addition, the logP in data set [1] (method marked [a]) is 4.41[a].
As to `CC1CC(C)c2c(NC(=O)c3c(C(F)F)nn(C)c3Cl)cccc21` (centres unmarked) [Example 44], the Eff. % stood at 98% in the data set with Phakopsora pachyrhizi, 100% with Puccinia recondita and 100% with Uromyces appendiculatus.
On to `CC1Cc2c(NC(=O)c3c(C(F)F)nn(C)c3F)cccc2C1(C)C` (centres unmarked) [Example 45], for which the Eff. % in the data set on Sphaerotheca fuliginea amounted to 100%; with Pyricularia oryzae (dose 500 ppm), 83%; in the data set with Puccinia recondita, 100%; with Uromyces appendiculatus, 100%. Besides, the logP in data set [1] (method marked [a]) is 3.94[a].
As to `CC1Cc2c(NC(=O)c3c(C(F)F)nn(C)c3Cl)cccc2C1(C)C` (centres unmarked) [Example 46], the Eff. % in the data set on Pyrenophora teres came to 75%; in the data set on Phakopsora pachyrhizi, 94%; with Pyricularia oryzae (dose 500 ppm), 97%; in the data set on Puccinia recondita it was 100%; in the data set on Alternaria brassicae, 86%; in the data set on Uromyces appendiculatus, 100%. The logP in data set [1] (method marked [a]) was 4.19[a].
For the compound `CC1CC2(CC2)c2cccc(NC(=O)c3c(C(F)F)nn(C)c3F)c21` (centres unmarked) [Example 50], the Eff. % in the data set on Pyrenophora teres stood at 80%; in the data set with Sphaerotheca fuliginea it was 98%; in the data set with Botrytis cinerea, 100%; with Puccinia recondita it was 98%; in the data set on Alternaria brassicae it was 93%; in the data set with Uromyces appendiculatus, 100%. The logP in data set [1] (method marked [a]) was 3.55[a].
`CC1CC2(CC2)c2cccc(NC(=O)c3c(C(F)F)nn(C)c3Cl)c21` (centres unmarked) [Example 51]: the Eff. % with Pyrenophora teres is on record as 70%; in the data set on Phakopsora pachyrhizi it was 93%; in the data set on Botrytis cinerea it was 94%; with Puccinia recondita it was 98%; with Uromyces appendiculatus it was 100%. The logP in data set [1] (method marked [a]) is 3.83[a].
Consider `CC1CC2(CC2)c2cccc(NC(=S)c3c(C(F)F)nn(C)c3F)c21` (centres unmarked) [Example 60], for which the Eff. % with Pyrenophora teres is 100%; in the data set on Septoria tritici, 93%; with Sphaerotheca fuliginea, 100%; in the data set on Botrytis cinerea, 100%; with Uromyces appendiculatus it was 100%. Also, the logP in data set [1] (method marked [a]) is 3.71[a].
As for `CC1c2c(NC(=O)c3c(C(F)F)nn(C)c3F)cccc2C(C)(C)C1C` (centres unmarked) [Example 64], the Eff. % in the data set with Pyrenophora teres was determined as 97%; with Septoria tritici, 93%; in the data set with Sphaerotheca fuliginea, 100%; in the data set on Botrytis cinerea, 100%; in the data set with Puccinia recondita it was 100%; in the data set on Alternaria brassicae, 100%. In addition, the Eff. % in the data set with Uromyces appendiculatus was 100%. Besides, the logP in data set [1] (method marked [a]) was 3.96[a].
On to `CC1c2cccc(NC(=O)c3c(C(F)F)nn(C)c3F)c2CC1(C)C` (centres unmarked) [Example 78], for which the Eff. % is 88% in the data set with Septoria tritici; 100% in the data set on Sphaerotheca fuliginea; 75% with Botrytis cinerea; 98% in the data set with Puccinia recondita; 95% with Alternaria brassicae; 100% in the data set on Uromyces appendiculatus. For the same compound, the logP in data set [1] (method marked [a]) was 3.92[a].
For the compound `Cn1nc(C(F)F)c(C(=O)Nc2cccc3c2C(C)(C)CC3)c1Cl` [Example 89], the Eff. % in the data set on Pyricularia oryzae (dose 100 ppm) is reported as 93%. Besides, the logP in data set [1] (method marked [a]) is 3.53[a].
